Measurements reported in ChEMBL document CHEMBL1159185, “Metabolism and structure activity data based drug design: discovery of () SCH 53079 an analog of the potent cholesterol absorption inhibitor () SCH 48461” (1996).

Columns and labels:
Cricetinae gen. sp. [1] = experiment: Compound was evaluated for the reduction of liver cholesterol ester levels in the cholesterol-fed Hamster model at 50 mg/kg; format: functional
Cricetinae gen. sp. [2] = experiment: Compound was evaluated for the reduction of liver cholesterol ester levels in the cholesterol-fed Hamster model at 50 mpk; format: functional
Monkey = experiment: Compound was evaluated for the reduction of liver cholesterol ester levels in the cholesterol-fed rhesus monkey model.; format: functional, Cercopithecidae
Cricetinae gen. sp. [3] = experiment: Compound was evaluated for the reduction of liver cholesterol ester levels in the cholesterol-fed Hamster model.; format: functional
Rattus norvegicus [4] = species: Rattus norvegicus; experiment: Compound was evaluated for the plasma concentration in female rats at 1 hr after post dose; format: functional, organism-based
Rattus norvegicus [5] = species: Rattus norvegicus; experiment: Compound was evaluated for the plasma concentration in female rats at 2 hr after post dose; format: functional, organism-based
Rattus norvegicus [6] = species: Rattus norvegicus; experiment: Compound was evaluated for the plasma concentration in female rats at 24 hr after post dose; format: functional, organism-based
Rattus norvegicus [7] = species: Rattus norvegicus; experiment: Compound was evaluated for the plasma concentration in female rats at 4 hr after post dose; format: functional, organism-based
Rattus norvegicus [8] = species: Rattus norvegicus; experiment: Compound was evaluated for the plasma concentration in female rats at 8 hr after post dose; format: functional, organism-based

## COc1ccc([C@@H]2[C@@H](CCOc3ccc([N+](=O)[O-])cc3)C(=O)N2c2ccccc2)cc1
Cricetinae gen. sp. [1]
  Reduction: -31%

## COc1ccc(OCC[C@H]2C(=O)N(c3ccccc3)[C@@H]2c2ccc(OC)cc2)cc1
Cricetinae gen. sp. [1]
  Reduction: -82%

## COc1ccc([C@@H]2[C@@H](CCOc3ccc(F)cc3F)C(=O)N2c2ccccc2)cc1
Cricetinae gen. sp. [1]
  Reduction: -88%

## COc1ccc([C@@H]2[C@@H](CCOc3ccccc3)C(=O)N2c2ccc(OC)cc2)cc1
Cricetinae gen. sp. [1]
  Reduction: -39%

## COc1ccc([C@@H]2[C@@H](CCOc3ccc4c(c3)CCC4)C(=O)N2c2ccccc2)cc1 (racemic)
Cricetinae gen. sp. [1]
  Reduction: -46%

## COc1ccc([C@@H]2[C@@H](CCOc3ccc(I)cc3)C(=O)N2c2ccccc2)cc1 (racemic)
Cricetinae gen. sp. [1]
  Reduction: -47%

## COc1ccc([C@@H]2[C@@H](CCOc3ccc(F)cc3)C(=O)N2c2ccc(OC)cc2)cc1 (racemic)
Cricetinae gen. sp. [1]
  Reduction: -93%

## COc1ccc([C@@H]2[C@@H](CCCc3ccccc3)C(=O)N2c2ccc(OC)cc2)cc1 (racemic) [SCH-48461]
Cricetinae gen. sp. [2]
  Reduction: -78%

## COc1ccc([C@@H]2[C@@H](CCOc3ccc(F)cc3)C(=O)N2c2ccccc2)cc1 (stereo in doubt; (+)4)
Cricetinae gen. sp. [1]; 50 mg/kg
  Reduction: -28%

## COc1ccc([C@@H]2[C@@H](CCOc3ccc(F)cc3)C(=O)N2c2ccccc2)cc1 (stereo in doubt; (+/-)4)
Cricetinae gen. sp. [1]; 50 mg/kg
  Reduction: -95%

## COc1ccc([C@@H]2[C@@H](CCOc3ccc(F)cc3)C(=O)N2c2ccccc2)cc1 (stereo in doubt; (-)4) [listing 1 of 2 here]
Cricetinae gen. sp. [1]; 50 mg/kg
  Reduction: -93%
Monkey
  ED100: 0.3 MPK
Cricetinae gen. sp. [3]
  ED50: 2.2 mg/kg

## COc1ccc([C@@H]2[C@@H](CCOc3ccc(F)cc3)C(=O)N2c2ccccc2)cc1 (stereo in doubt; (-)4) [listing 2 of 2 here]
Rattus norvegicus [4]
  Plasma level: > 30 ng/mL
Rattus norvegicus [5]
  Plasma level: 41.1 ng/mL
Rattus norvegicus [6]
  Plasma level: < 30 ng/mL
Rattus norvegicus [7]
  Plasma level: < 30 ng/mL
Rattus norvegicus [8]
  Plasma level: 239 ng/mL

## COc1ccc([C@@H]2[C@@H](CCCc3ccccc3)C(=O)N2c2ccc(OC)cc2)cc1 [SCH-48461]
Monkey
  ED100: 1 MPK
